Data from US20250011288A1 (BRISTOL-MYERS SQUIBB COMPANY, priority 2021, published 2025).

Each compound was assayed against T1, human RXFP1 (Homo sapiens, UniProt Q9HBX9) (assay: human RXFP1 (hRXFP1) HEK293 cAMP assay (HTRF)). Conditions: HEK293 cells stably expressing human RXFP1, 30 min at room temperature.
T1 construct: expressed in transfected cells
T1 sequence (Q9HBX9 1-757): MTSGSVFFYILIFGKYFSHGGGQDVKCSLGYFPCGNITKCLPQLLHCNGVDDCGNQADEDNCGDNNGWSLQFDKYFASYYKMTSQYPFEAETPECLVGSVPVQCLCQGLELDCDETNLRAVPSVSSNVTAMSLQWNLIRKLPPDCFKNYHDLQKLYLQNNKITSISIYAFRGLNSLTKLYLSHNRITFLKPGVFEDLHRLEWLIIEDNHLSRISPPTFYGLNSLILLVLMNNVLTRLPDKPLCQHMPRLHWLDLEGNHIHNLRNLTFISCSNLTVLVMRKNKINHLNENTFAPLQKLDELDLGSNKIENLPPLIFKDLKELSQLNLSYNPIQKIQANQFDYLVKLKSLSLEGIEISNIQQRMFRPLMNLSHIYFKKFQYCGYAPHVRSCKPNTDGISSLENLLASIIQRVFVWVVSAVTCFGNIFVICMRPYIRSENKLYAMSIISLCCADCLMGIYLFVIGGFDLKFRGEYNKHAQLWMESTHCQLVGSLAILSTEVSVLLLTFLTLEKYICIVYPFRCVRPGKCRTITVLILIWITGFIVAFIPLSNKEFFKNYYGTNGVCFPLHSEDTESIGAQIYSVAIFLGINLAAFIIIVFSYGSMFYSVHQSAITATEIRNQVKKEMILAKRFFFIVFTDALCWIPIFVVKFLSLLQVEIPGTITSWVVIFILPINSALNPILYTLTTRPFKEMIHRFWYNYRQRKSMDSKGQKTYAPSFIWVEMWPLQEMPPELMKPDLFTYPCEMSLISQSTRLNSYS
Format: cell-based
Procedure: RXFP1 Cyclic Adenosine Monophosphate (cAMP) Assays. […] Cells were dissociated and suspended in assay buffer. The assay buffer was HBSS buffer (with calcium and magnesium) containing 20 mM HEPES, 0.05% BSA, and 0.5 mM IBMX. Cells (3000 cells per well, except 1500 cell per well for HEK293 cells stably expressing human RXFP1) were added to 384-well Proxiplates (Perkin-Elmer). Cells were immediately treated with test compounds in DMSO (2% final) at final concentrations in the range of 0.010 nM to 50 µM. Cells were incubated for 30 min at room temperature. The level of intracellular cAMP was determined using the HTRF HiRange cAMP assay reagent kit (Cisbio) according to manufacturer's instructions. Solutions of cryptate conjugated anti-cAMP and d2 fluorophore-labelled cAMP were made in a supplied lysis buffer separately. Upon completion of the reaction, the cells were lysed with equal volume of the d2-cAMP solution and anti-cAMP solution. […] The potency and activity of a compound to […] cAMP production was then determined by fitting to a 4-parametric logistic equation from a plot of cAMP level versus compound concentrations.

| Structure (SMILES) | EC50 |
| --- | --- |
| O=C(N[C@@H]1C2CCC(/C2=C/C(F)(F)F)[C@@H]1C(=O)Nc1ccc(F)c(C(F)(F)F)c1)c1cc(Br)cc2c1OCC2 (stereo partly drawn) [Example 58, 5-bromo-N-[(2R,3S,7Z)-3-{[4-fluoro-3-(trifluoromethyl)phenyl]carbamoyl}-7-(2,2,2-trifluoro-ethylidene)bicyclo[2. 2.1]heptan-2-yl]-2,3-dihydro-1-benzofuran-7-carboxamide] | 3000 nM |
| COc1ncc(C2=NOC3CC(C(C)O)CC23)cc1C(=O)N[C@H]1[C@@H](C(=O)Nc2ccc(F)c(C(F)(F)F)c2)[C@H]2CC[C@@H]1/C2=C\C1CC1 (stereo partly drawn) [Example 112, N-((1R,2R,3S,4R,Z)-7-(cyclopropyl-methylene)-3-((4-fluoro-3-(trifluoromethyl)phenyl)carbamoyl)bicyclo[2.2.1]heptan-2-yl)-5-(5-(1-hydroxyethyl)-3a,5,6,6a-tetrahydro-4H-cyclopenta[d]isoxazol-3-yl)-2-methoxynicotinamide] | 3.9 nM |
| COc1ncc(C2=NOC3CC(C(O)C(F)(F)F)CC23)cc1C(=O)N[C@H]1[C@@H](C(=O)NC23CC(C#N)(C2)C3)[C@H]2CC[C@@H]1/C2=C\C1CC1 (stereo partly drawn) [Example 108, N-((1R,2R,3S,4R,Z)-3-((3-cyanobicyclo [1.1.1]pentan-1-yl)carbamoyl)-7-(cyclopropyl-methylene)bicyclo[2.2.1]heptan-2-yl)-2-methoxy-5-(5-(2,2,2-trifluoro-1-hydroxyethyl)-3a,5,6,6a-tetrahydro-4H-cyclopenta[d]isoxazol-3-yl)nicotinamide] | 3.5 nM |
| Cc1nc(O)c(C(=O)N[C@H]2[C@@H](C(=O)Nc3ccc(F)c(C(F)(F)F)c3)[C@H]3CC[C@@H]2/C3=C\C(F)(F)F)cc1-c1cccc(C(=O)O)c1 [Example 56, 3-(5-(((1R,2R,3S,4R,Z)-3-((4-fluoro-3-(trifluoromethyl)phenyl)carbamoyl)-7-(2,2,2-trifluoroethylidene)bicyclo[2.2.1]heptan-2-yl)carbamoyl)-6-hydroxy-2-methylpyridin-3-yl)benzoic acid] | 2800 nM |
| COc1nccnc1C(=O)N[C@@H]1C2CCC(C2=C(C)C)[C@@H]1C(=O)Nc1ccc(F)c(C(F)(F)F)c1 (stereo partly drawn) [Example 7, N-[(2R,3S)-3-{[4-fluoro-3-(trifluoromethyl)phenyl]carbamoyl}-7-(propan-2-ylidene)bicyclo [2.2.1]heptan-2-yl]-3-methoxypyrazine-2-carboxamide] | 1200 nM |
| O=C(O)c1ccc(F)c(-c2cnc(OCCO)c(C(=O)N[C@H]3[C@@H](C(=O)Nc4ccc(F)c(C(F)(F)F)c4)[C@H]4CC[C@@H]3/C4=C\C(F)(F)F)c2)c1 [Example 40, 4-fluoro-3-(5-(((1R,2R,3S,4R,Z)-3-((4-fluoro-3-(trifluoromethyl)phenyl)carbamoyl)-7-(2,2,2-trifluoroethylidene)bicyclo[2.2.1]heptan-2-yl)carbamoyl)-6-(2-hydroxyethoxy)pyridin-3-yl)benzoic acid] | 39 nM |
| O=C(N[C@@H]1C2CCC(/C2=C/C2CC2)[C@@H]1C(=O)Nc1ccc(F)c(C(F)(F)F)c1)c1cncc(C2=NOC3COCC23)c1 (single isomer, unassigned) [Example 62] | 2400 nM |
| COc1ccc(-c2ccc(C(=O)O)cc2)nc1C(=O)N[C@@H]1C2CCC(C2=C(C)C)[C@@H]1C(=O)Nc1ccc(F)c(C(F)(F)F)c1 (stereo partly drawn) [Example 22, 4-(6-{[(2R,3S)-3-{[4-fluoro-3-(trifluoromethyl)phenyl]carbamoyl}-7-(propan-2-ylidene)bicyclo [2.2.1]heptan-2-yl]carbamoyl}-5-methoxypyridin-2-yl)benzoic acid] | 1700 nM |
| COc1ncc(C2=NOC3CC(C(C)O)CC23)cc1C(=O)N[C@H]1[C@@H](C(=O)N[C@H](C)C2(C)CC2)[C@H]2CC[C@@H]1/C2=C\C1CC1 (stereo partly drawn) [Example 159, N-[(1R,2R,3S,4R, 7Z)-7-(cyclopropyl-methylidene)-3-{[(1R)-1-(1-methylcyclopropyl)ethyl]carbamoyl}bicyclo[2.2.1]heptan-2-yl]-5-[5-(1-hydroxyethyl)-3aH,4H,5H,6H, 6aH-cyclopenta[d][1,2]oxazol-3-yl]-2-methoxypyridine-3-carboxamide] | 6.1 nM |
| CC1Cc2cc(C3=NOC4CC(CO)CC34)cc(C(=O)N[C@@H]3C4CCC(/C4=C/C4CC4)[C@@H]3C(=O)N[C@H](C)C3(C)CC3)c2O1 (stereo partly drawn) [Example 152] | 9 nM |
| COc1cnc(-c2cc([C@H](OC(=O)Nc3ccccc3)C(F)(F)F)ccc2F)cc1C(=O)N[C@@H]1C2CCC(/C2=C/C(F)(F)F)[C@@H]1C(=O)Nc1ccc(F)c(C(F)(F)F)c1 (stereo partly drawn) [Example 38, (1S)-2,2,2-trifluoro-1-14-fluoro-3-(4-{[(2R,3S,7Z)-3-{[4-fluoro-3-(trifluoromethyl)phenyl]carbamoyl}-7-(2.2,2-trifluoroethylidene)bicyclo[2.2.1]heptan-2-yl]carbamoyl}-5-methoxypyridin-2-yl)phenyl]ethyl N-phenylcarbamate] | 63 nM |
| COc1nn(-c2cccc(C(=O)O)c2)cc1C(=O)N[C@@H]1C2CCC(/C2=C/C(F)(F)F)[C@@H]1C(=O)Nc1ccc(F)c(C(F)(F)F)c1 (stereo partly drawn) [Example 53, 3-(4-{[(2R,3S,7Z)-3-{[4-fluoro-3-(trifluoromethyl)phenyl]carbamoyl}-7-(2,2,2-trifluoroethylidene)bicyclo[2.2.1]heptan-2-yl]carbamoyl}-3-methoxy-1H-pyrazol-1-yl)benzoic acid] | 1600 nM |
| N#Cc1ccc2c(c1)CCc1c(C(=O)N[C@H]3[C@@H](C(=O)Nc4ccc(F)c(C(F)(F)F)c4)[C@H]4CC[C@@H]3/C4=C\C(F)(F)F)nn(CC(F)F)c1-2 [Example 55, 7-cyano-1-(2,2-difluoroethyl)-N-((1R,2R,3S,4R,Z)-3-((4-fluoro-3-(trifluoromethyl)phenyl)carbamoyl)-7-(2,2,2-trifluoroethylidene)bicyclo[2.2.1]heptan-2-yl)-4,5-dihydro-1H-benzo[g]indazole-3-carboxamide] | 360 nM |
| COc1ncc(C2=NOC3CC(C)(CO)CC23)cc1C(=O)N[C@H]1[C@@H](C(=O)N[C@H](C)C2(C)CC2)[C@H]2CC[C@@H]1/C2=C\C1CC1 (stereo partly drawn) [Example 177, N-[(1R,2R,3S,4R, 7Z)-7-(cyclopropyl-methylidene)-3-{[(1R)-1-(1-methylcyclo-propyl)ethyl]carbamoyl}bicyclo[2.2.1]heptan-2-yl]-5-[5-(hydroxymethyl)-5-methyl-3aH,4H,5H,6H, 6aH-cyclopenta[d][1,2]oxazol-3-yl]-2-methoxypyridine-3-carboxamide] | 3.3 nM |
| COc1ncc(-c2cc([C@H](O)C(F)(F)F)ccc2F)nc1C(=O)N[C@@H]1C2CCC(/C2=C/C(F)(F)F)[C@@H]1C(=O)Nc1ccc(F)c(C(F)(F)F)c1 (stereo partly drawn) [Example 34, N-[(2R,3S,7Z)-3-{[4-fluoro-3-(trifluoromethyl)phenyl]carbamoyl}-7-(2,2,2-trifluoroethylidene)bicyclo[2.2.1]heptan-2-yl]-6-{2-fluoro-5-[(1S)-2,2,2-trifluoro-1-hydroxyethyl]phenyl}-3-methoxypyrazine-2-carboxamide] | 3000 nM |
| COc1ncc(-c2cc([C@H](OC(=O)NC3CCC3)C(F)(F)F)ccc2F)cc1C(=O)N[C@H]1[C@@H](C(=O)NC(C)C2(C)CC2)[C@H]2CC[C@@H]1/C2=C\C1CC(F)(F)C1 (stereo partly drawn) [Example 148, (S)-1-(3-(5-(((1R,2R,3S,4R, Z)-7-((3,3-difluorocyclobutyl)methylene)-3-(((R)-1-(1-methylcyclopropyl)ethyl)carbamoyl)bicyclo[2.2.1]heptan-2-yl)carbamoyl)-6-methoxypyridin-3-yl)-4-fluorophenyl)-2,2,2-trifluoroethyl cyclobutylcar-bamate] | 0.5 nM |
| COc1ncc(C2=NOC3CC(C(N)=O)CC23)cc1C(=O)N[C@H]1[C@@H](C(=O)Nc2ccc(F)c(C(F)(F)F)c2)[C@H]2CC[C@@H]1/C2=C\C1CC1 (single isomer, unassigned) [Example 65] | 21 nM |
| COc1ncc(C(=O)NCC2(S(C)(=O)=O)CC2)cc1C(=O)N[C@H]1C(C(=O)Nc2ccc(F)c(C(F)(F)F)c2)[C@H]2CC[C@@H]1/C2=C\C1CC1 (stereo in doubt) [Example 74, N3-((1R,2R,3R,4R,Z)-7-(cyclopropylmethylene)-3-((4-fluoro-3-(trifluoromethyl)phenyl)carbamoyl)bicyclo[2.2.1]heptan-2-yl)-2-methoxy-N5-((1-(methylsulfonyl)cyclopropyl)methyl)pyridine-3,5-dicarboxamide] | 3.5 nM |
